The values that follow come from patent US20250215029A1 (Recludix Pharma, Inc., priority 2022, published 2025).

A value given as a limit tells only on which side of the number the result lay.

The target of the test is T1, pY705-STAT3 in PBMC (Homo sapiens, UniProt P40763).
T1 construct: Cryopreserved Peripheral Blood Mononuclear Cells (PBMC) are from AllCells; host or cells: cryopreserved PBMC
T1 sequence (P40763 whole entry): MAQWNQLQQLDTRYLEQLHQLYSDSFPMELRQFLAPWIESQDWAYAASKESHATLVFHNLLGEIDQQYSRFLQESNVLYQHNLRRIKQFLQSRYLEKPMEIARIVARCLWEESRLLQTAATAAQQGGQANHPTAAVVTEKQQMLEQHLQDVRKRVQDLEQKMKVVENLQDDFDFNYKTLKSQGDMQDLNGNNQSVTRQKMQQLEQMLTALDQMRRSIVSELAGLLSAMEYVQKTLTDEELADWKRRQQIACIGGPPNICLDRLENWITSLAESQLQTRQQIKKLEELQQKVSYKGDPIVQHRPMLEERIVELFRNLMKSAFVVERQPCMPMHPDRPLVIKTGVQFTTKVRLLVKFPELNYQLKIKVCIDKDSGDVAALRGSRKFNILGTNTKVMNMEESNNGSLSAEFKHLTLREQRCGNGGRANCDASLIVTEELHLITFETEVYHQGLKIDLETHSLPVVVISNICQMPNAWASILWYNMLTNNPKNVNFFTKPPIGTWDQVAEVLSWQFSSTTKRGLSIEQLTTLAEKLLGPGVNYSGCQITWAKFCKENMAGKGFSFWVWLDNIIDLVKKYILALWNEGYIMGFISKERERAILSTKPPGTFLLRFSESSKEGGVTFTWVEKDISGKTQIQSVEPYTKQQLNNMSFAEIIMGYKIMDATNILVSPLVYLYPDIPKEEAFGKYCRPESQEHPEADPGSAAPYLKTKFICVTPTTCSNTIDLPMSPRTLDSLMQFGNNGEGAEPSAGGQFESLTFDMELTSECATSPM
In words: MSD-pSTAT-PBMC Assay (pSTAT3, IL-6 stimulated). Format: cell-based. Conditions: PBMC, compound 3 hrs, then 10 ng/mL IL-6 for 10 min; Table 115; read-out: STAT3. In outline: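 Thawed human PBMC rested overnight in IMDM/10% FBS, then got compound for 3 hrs before a 10 min cytokine pulse: 1 ng/mL IL-4 for pSTAT6, 10 ng/mL IL-6 for pSTAT3. Lysates went to MSD sandwich capture on total STAT6 or STAT3 with phospho-specific detection. IC50 came from background-subtracted, DMSO-normalized signal.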
`CCCOC(=O)[C@H](C)NP(=O)(Oc1ccccc1)C(F)c1ccc2sc(C(=O)N[C@H]3CCCC[C@H]4CC[C@@H](C(=O)NCc5cnc6[nH]cnc6c5)N4C3=O)cc2c1` (stereo partly drawn) [Compound 265, propyl (((2-(((3S,6S,10aS)-3-(((3H-imidazo[4,5-b]pyridin-6-yl)methyl)carbamoyl)-5-oxodecahydropyrrolo [1,2-a]azocin-6-yl)carbamoyl)benzo [b]thiophen-5-yl)fluoromethyl) (phenoxy)phosphoryl)-L-alaninate]: the IC50 was 100 to 1000 nM.
To `CCCOC(=O)[C@H](C)NP(=O)(Oc1ccccc1)C(F)c1ccc2sc(C(=O)N[C@H]3CCC[C@H]4CC[C@@H](C(=O)N5CC(c6cccc(C#N)n6)C5)N4C3=O)cc2c1` (stereo partly drawn) [Compound 266, propyl (((2-(((3S,6S,9aS)-3-(3-(6-cyanopyridin-2-yl)azetidine-1-carbonyl)-5-oxooctahydro-1H-pyrrolo[1,2-a]azepin-6-yl)carbamoyl)benzo [b]thiophen-5-yl)fluoromethyl) (phenoxy)phosphoryl)-L-alaninate] belongs under 100 nM.
Next, `CCCOC(=O)[C@H](C)NP(=O)(Cc1ccc2sc(C(=O)N[C@H]3CCC[C@H]4CC[C@@H](C(=O)N5CC(c6cnccc6C6CC6)C5)N4C3=O)cc2c1)Oc1ccccc1` (stereo partly drawn) [Compound 267, propyl (((2-(((3S,6S,9aS)-3-(3-(4-cyclopropylpyridin-3-yl)azetidine-1-carbonyl)-5-oxooctahydro-1H-pyrrolo[1,2-a]azepin-6-yl)carbamoyl)benzo [b]thiophen-5-yl)methyl)(phenoxy)phosphoryl)-L-alaninate]: under 100 nM.
In the case of `CCCOC(=O)[C@H](C)NP(=O)(Cc1ccc2sc(C(=O)N[C@H]3CCC[C@H]4CC[C@@H](C(=O)N5CC(c6cnccc6Cl)C5)N4C3=O)cc2c1)Oc1ccccc1` (stereo partly drawn) [Compound 268, propyl (((2-(((3S,6S,9aS)-3-(3-(4-chloropyridin-3-yl)azetidine-1-carbonyl)-5-oxooctahydro-1H-pyrrolo[1,2-a]azepin-6-yl)carbamoyl)benzo [b]thiophen-5-yl)methyl)(phenoxy)phosphoryl)-L-alaninate], the IC50 fell in the range of 100 to 1000 nM.
To `CCCOC(=O)[C@H](C)NP(=O)(Cc1ccc2sc(C(=O)N[C@H]3CCC[C@H]4CC[C@@H](C(=O)N5CC(c6cnc(OC)cc6F)C5)N4C3=O)cc2c1)Oc1ccccc1` (stereo partly drawn) [Compound 271, propyl (((2-(((3S,6S,9aS)-3-(3-(4-fluoro-6-methoxypyridin-3-yl)azetidine-1-carbonyl)-5-oxooctahydro-1H-pyrrolo[1,2-a]azepin-6-yl)carbamoyl)benzo [b]thiophen-5-yl)methyl)(phenoxy)phosphoryl)-L-alaninate] belongs 100 to 1000 nM; to `CCCOC(=O)[C@H](C)NP(=O)(Cc1ccc2sc(C(=O)N[C@H]3CCC[C@H]4CC[C@@H](C(=O)N5CC(c6cccnc6C(F)F)C5)N4C3=O)cc2c1)Oc1ccccc1` (stereo partly drawn) [Compound 272, propyl (((2-(((3S,6S,9aS)-3-(3-(2-(difluoromethyl)pyridin-3-yl)azetidine-1-carbonyl)-5-oxooctahydro-1H-pyrrolo[1,2-a]azepin-6-yl)carbamoyl)benzo [b]thiophen-5-yl)methyl)(phenoxy)phosphoryl)-L-alaninate], under 100 nM.
Next, `CCCOC(=O)[C@H](C)NP(=O)(Oc1ccccc1)C(F)c1ccc2sc(C(=O)N[C@H]3CCC[C@H]4CC[C@@H](C(=O)N5CC(c6cnccc6C#N)C5)N4C3=O)cc2c1` (stereo partly drawn) [Compound 273, propyl (((2-(((3S,6S,9aS)-3-(3-(4-cyanopyridin-3-yl)azetidine-1-carbonyl)-5-oxooctahydro-1H-pyrrolo[1,2-a]azepin-6-yl)carbamoyl)benzo [b]thiophen-5-yl)fluoromethyl) (phenoxy)phosphoryl)-L-alaninate]: 100 to 1000 nM; `CCCOC(=O)[C@H](C)NP(=O)(Cc1ccc2sc(C(=O)N[C@H]3CCCC[C@H]4CC[C@@H](C(=O)N5CC(c6cnccc6F)C5)N4C3=O)cc2c1)Oc1ccccc1` (stereo partly drawn) [Compound 274, propyl (((2-(((3S,6S,10aS)-3-(3-(4-fluoropyridin-3-yl)azetidine-1-carbonyl)-5-oxodecahydropyrrolo [1,2-a]azocin-6-yl)carbamoyl)benzo [b]thiophen-5-yl)methyl)(phenoxy)phosphoryl)-L-alaninate]: under 100 nM.
Next, `CCCOC(=O)[C@H](C)NP(=O)(Cc1ccc2sc(C(=O)N[C@H]3CCC[C@H]4CC[C@@H](C(=O)N5CC(c6c(F)ccnc6OC)C5)N4C3=O)cc2c1)Oc1ccccc1` (stereo partly drawn) [Compound 275, propyl (((2-(((3S,6S,9aS)-3-(3-(4-fluoro-2-methoxypyridin-3-yl)azetidine-1-carbonyl)-5-oxooctahydro-1H-pyrrolo[1,2-a]azepin-6-yl)carbamoyl)benzo [b]thiophen-5-yl)methyl)(phenoxy)phosphoryl)-L-alaninate]: over 3000 nM; `CC[C@H](C)OC(=O)[C@H](C)NP(=O)(Cc1ccc2sc(C(=O)N[C@H]3CCC[C@H]4CC[C@@H](C(=O)N5CC(c6cccnc6)C5)N4C3=O)cc2c1)Oc1ccccc1` (stereo partly drawn) [Compound 276, (S)-sec-butyl (((2-(((3S,6S,9aS)-5-oxo-3-(3-(pyridin-3-yl)azetidine-1-carbonyl)octahydro-1H-pyrrolo[1,2-a]azepin-6-yl)carbamoyl)benzo [b]thiophen-5-yl)methyl)(phenoxy)phosphoryl)-L-alaninate]: 100 to 1000 nM.
Consider `CC(C)COC(=O)[C@H](C)NP(=O)(Oc1ccccc1)C(F)c1ccc2sc(C(=O)N[C@H]3CCC[C@H]4CC[C@@H](C(=O)N5CC(c6cnccc6F)C5)N4C3=O)cc2c1` (stereo partly drawn) [Compound 277, isobutyl ((fluoro(2-(((3S,6S,9aS)-3-(3-(4-fluoropyridin-3-yl)azetidine-1-carbonyl)-5-oxooctahydro-1H-pyrrolo[1,2-a]azepin-6-yl)carbamoyl)benzo [b]thiophen-5-yl)methyl)(phenoxy)phosphoryl)-L-alaninate], for which the IC50 was under 100 nM.
`CCCOC(=O)[C@H](C)NP(=O)(Cc1ccc2sc(C(=O)N[C@H]3CCC[C@H]4CC[C@@H](C(=O)N5CC(c6cnc(F)cc6OC)C5)N4C3=O)cc2c1)Oc1ccccc1` (stereo partly drawn) [Compound 278, propyl (((2-(((3S,6S,9aS)-3-(3-(6-fluoro-4-methoxypyridin-3-yl)azetidine-1-carbonyl)-5-oxooctahydro-1H-pyrrolo[1,2-a]azepin-6-yl)carbamoyl)benzo [b]thiophen-5-yl)methyl)(phenoxy)phosphoryl)-L-alaninate]: the IC50 was in the range of 100 to 1000 nM.
As to `CCCCOC(=O)[C@H](C)NP(=O)(Cc1ccc2sc(C(=O)N[C@H]3CCC[C@H]4CC[C@@H](C(=O)N5CC(c6cccnc6)C5)N4C3=O)cc2c1)Oc1ccccc1` (stereo partly drawn) [Compound 279, butyl (((2-(((3S,6S,9aS)-5-oxo-3-(3-(pyridin-3-yl)azetidine-1-carbonyl)octahydro-1H-pyrrolo[1,2-a]azepin-6-yl)carbamoyl)benzo [b]thiophen-5-yl)methyl)(phenoxy)phosphoryl)-L-alaninate], the IC50 is under 100 nM.
